Tests used:
[1] = Inhibition of ROCK by enzyme-coupled luciferase-kinase assay
[2] = Inhibition of PKA
[3] = Selectivity ratio of IC50 for PKA to IC50 to ROCK
Cytochrome P450 2C9 = Cytochrome P450 2C9 (Homo sapiens, UniProt P11712); test: Inhibition of CYP2C9; assay type: ADME
Cytochrome P450 2D6 = Cytochrome P450 2D6 (Homo sapiens, UniProt P10635); test: Inhibition of CYP2D6; assay type: ADME
Cytochrome P450 3A4 = Cytochrome P450 3A4 (Homo sapiens, UniProt P08684); test: Inhibition of CYP3A4; assay type: ADME
Sequence of Cytochrome P450 3A4 (P08684 whole entry): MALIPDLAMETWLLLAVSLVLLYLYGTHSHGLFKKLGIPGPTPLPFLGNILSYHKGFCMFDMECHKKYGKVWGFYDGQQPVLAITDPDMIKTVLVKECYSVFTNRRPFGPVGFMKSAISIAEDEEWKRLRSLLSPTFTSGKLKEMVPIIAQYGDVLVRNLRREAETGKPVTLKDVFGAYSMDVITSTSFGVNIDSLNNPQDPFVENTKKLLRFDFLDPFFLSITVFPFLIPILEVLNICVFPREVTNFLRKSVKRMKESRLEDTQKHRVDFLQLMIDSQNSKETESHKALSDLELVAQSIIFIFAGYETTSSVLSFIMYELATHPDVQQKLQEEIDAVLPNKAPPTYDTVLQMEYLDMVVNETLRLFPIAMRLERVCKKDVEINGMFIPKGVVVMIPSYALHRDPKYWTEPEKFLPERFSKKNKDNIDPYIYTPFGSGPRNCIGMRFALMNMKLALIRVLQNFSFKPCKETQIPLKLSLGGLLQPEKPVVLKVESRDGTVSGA

Cytochrome P450 1A2 = target: T1, Cytochrome P450 1A2 (Homo sapiens, UniProt P05177); test: Inhibition of CYP1A2; assay type: ADME
T1 sequence (P05177 whole entry): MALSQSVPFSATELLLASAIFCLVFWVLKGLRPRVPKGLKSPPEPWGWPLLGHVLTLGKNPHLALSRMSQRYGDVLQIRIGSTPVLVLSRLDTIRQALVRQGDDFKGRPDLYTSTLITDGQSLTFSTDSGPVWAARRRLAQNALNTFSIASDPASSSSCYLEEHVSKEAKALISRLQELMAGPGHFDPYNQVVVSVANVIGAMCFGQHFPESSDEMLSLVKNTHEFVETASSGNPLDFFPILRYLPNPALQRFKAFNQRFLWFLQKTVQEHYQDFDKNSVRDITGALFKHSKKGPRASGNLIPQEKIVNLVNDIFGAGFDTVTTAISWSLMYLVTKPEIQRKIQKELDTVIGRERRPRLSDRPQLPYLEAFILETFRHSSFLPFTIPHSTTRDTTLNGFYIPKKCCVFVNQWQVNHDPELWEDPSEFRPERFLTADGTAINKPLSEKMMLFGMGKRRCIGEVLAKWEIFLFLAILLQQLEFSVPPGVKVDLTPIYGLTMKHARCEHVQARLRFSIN

[4] = Half life in rat at 2 mg/kg, po or 1 mg/kg, iv; assay type: ADME, organism-based; details: in vivo
[5] = Inhibition of ROCK by myosin light chain phosphorylation assay
[6] = Volume of distribution at steady state in rat at 2 mg/kg, po or 1 mg/kg, iv; assay type: ADME, organism-based; details: in vivo, read-out: Vdss
[7] = Oral bioavailability in rat at 2 mg/kg; assay type: ADME, organism-based; details: in vivo
[8] = Cmax in rat at 2 mg/kg, po; assay type: ADME, organism-based; parameters: dose 2 mg/kg, route oral; details: in vivo
[9] = Clearance in rat at 2 mg/kg, po or 1 mg/kg, iv; assay type: ADME, organism-based; details: in vivo
Rattus norvegicus = test: AUC in rat at 2 mg/kg, po; assay type: ADME, organism-based, Plasma; parameters: dose 2 mg/kg, route oral; details: in vivo
[10] = Half life in human liver microsomes; assay type: ADME, Microsome

Sequence of Cytochrome P450 2D6 (P10635 whole entry): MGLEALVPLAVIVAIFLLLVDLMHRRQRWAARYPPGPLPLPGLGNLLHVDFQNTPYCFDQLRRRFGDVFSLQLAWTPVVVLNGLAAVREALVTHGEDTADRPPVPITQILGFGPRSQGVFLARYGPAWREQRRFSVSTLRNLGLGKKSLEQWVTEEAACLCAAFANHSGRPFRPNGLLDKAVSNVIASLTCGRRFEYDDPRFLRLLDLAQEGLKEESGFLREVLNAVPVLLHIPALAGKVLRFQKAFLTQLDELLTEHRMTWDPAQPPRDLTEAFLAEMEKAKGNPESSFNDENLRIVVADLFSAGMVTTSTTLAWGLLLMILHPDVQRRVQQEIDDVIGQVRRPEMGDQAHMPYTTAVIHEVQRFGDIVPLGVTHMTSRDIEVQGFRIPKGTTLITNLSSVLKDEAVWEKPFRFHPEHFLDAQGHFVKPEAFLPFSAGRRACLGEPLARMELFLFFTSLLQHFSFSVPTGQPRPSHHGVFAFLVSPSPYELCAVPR
Sequence of Cytochrome P450 2C9 (P11712 whole entry): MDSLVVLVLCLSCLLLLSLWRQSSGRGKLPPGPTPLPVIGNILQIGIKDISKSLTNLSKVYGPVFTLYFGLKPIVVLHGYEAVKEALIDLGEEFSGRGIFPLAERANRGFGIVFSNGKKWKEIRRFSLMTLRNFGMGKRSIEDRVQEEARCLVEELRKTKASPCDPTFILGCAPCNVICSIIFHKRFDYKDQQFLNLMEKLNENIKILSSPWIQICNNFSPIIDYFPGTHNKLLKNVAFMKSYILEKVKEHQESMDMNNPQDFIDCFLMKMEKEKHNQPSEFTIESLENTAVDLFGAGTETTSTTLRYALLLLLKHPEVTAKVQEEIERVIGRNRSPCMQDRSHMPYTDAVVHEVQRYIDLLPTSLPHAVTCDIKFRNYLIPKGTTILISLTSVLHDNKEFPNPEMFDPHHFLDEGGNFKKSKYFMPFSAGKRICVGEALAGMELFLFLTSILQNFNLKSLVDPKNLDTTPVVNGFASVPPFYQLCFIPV

Row | Structure (SMILES) | IC50 [1] [nM] | IC50 [2] [nM] | Ratio IC50 [3] | Activity (Cytochrome P450 2C9) | Activity (Cytochrome P450 2D6) | Activity (Cytochrome P450 3A4) | Activity (Cytochrome P450 1A2) | half-life [4] [h] | IC50 [5] [nM] | Vd [6] [L/kg] | bioavailability [7] [%] | Cmax [8] [nM] | clearance [9] [mL/min/kg] | AUC (Rattus norvegicus) [µM·h] | half-life [10] [h]
1 | c1ccc2c(c1)CC(c1nc3ccc(-c4ccncc4)cc3[nH]1)CO2 (centres undefined) | 1.7 | 252 | 148 | Active | Active | Active | Active | – | – | – | – | – | – | – | –
2 | c1ccc2c(c1)OCC(c1nc3ccc(-c4ccncc4)cc3n1CC1CC1)O2 (centres undefined) | 24 | 850 | 35 | Active | Active | Active | Active | – | – | – | – | – | – | – | –
3 | FC(F)(F)c1cc2nc(C3COc4ccccc4O3)[nH]c2cc1-c1ccncc1 (centres undefined) | 2970 | 3080 | 1 | Active | Active | Active | Active | – | – | – | – | – | – | – | –
4 | COc1c(-c2ccncc2)ccc2nc(C3COc4ccccc4C3)[nH]c12 (centres undefined) | 4.1 | 187 | 46 | Active | Active | Active | Active | – | – | – | – | – | – | – | –
5 | Cc1c(-c2ccncc2)cc2[nH]c(C3COc4ccccc4O3)nc2c1C (centres undefined) | > 20000 | > 20000 | – | Active | Active | Active | Active | – | – | – | – | – | – | – | –
6 | Nc1nccc(-c2ccc3nc(C4COc5ccc(C(=O)NCc6ccccc6)cc5C4)[nH]c3c2)n1 (centres undefined) | < 1 | 78 | 78 | – | – | – | – | – | – | – | – | – | – | – | –
7 | c1ccc2c(c1)OCC(c1nc3ccc(-c4ccncc4)cc3n1CCN1CCOCC1)O2 (centres undefined) | 130 | 6120 | 47 | Active | Active | Active | Active | – | – | – | – | – | – | – | –
8 | Nc1nccc(-c2ccc3nc(C4COc5ccc(C(=O)NCCc6cccnc6)cc5C4)[nH]c3c2)n1 (centres undefined) | 0.25 | 442 | 1770 | – | – | – | – | 3.6 | 250 | 5.9 | 6 | 5 | 58 | 0.08 | 0.025
9 | Cn1c(C2COc3ccccc3O2)nc2ccc(-c3ccncc3)cc21 (centres undefined) | 15 | 1960 | 131 | Active | Active | Active | Active | – | – | – | – | – | – | – | –
10 | c1ccc2c(c1)OCC(c1nc3ccc(-c4ccncc4)cc3[nH]1)O2 (centres undefined) | 7.5 | 355 | 47 | Active | Active | Active | Active | – | – | – | – | – | – | – | –
11 | COc1ccc2c(c1)CC(c1nc3c(OCCCO)cc(-c4ccncc4)cc3[nH]1)CO2 (centres undefined) | 183 | 1590 | 9 | Active | Active | Active | Active | – | – | – | – | – | – | – | –
12 | Nc1nccc(-c2ccc3nc(C4COc5ccc(C(=O)NC6CCCCC6)cc5C4)[nH]c3c2)n1 (centres undefined) | 1.1 | 20 | 18 | – | – | – | – | – | – | – | – | – | – | – | –
13 | COCCn1c(C2COc3ccccc3O2)nc2ccc(-c3ccncc3)cc21 (centres undefined) | 11 | 310 | 28 | Active | Active | Active | Active | – | – | – | – | – | – | – | –
14 | CN(C)CCNC(=O)c1ccc2c(c1)CC(c1nc3ccc(-c4ccnc(N)n4)cc3[nH]1)CO2 (centres undefined) | 1.5 | 328 | 219 | – | – | – | – | – | – | – | – | – | – | – | –
15 | Nc1nccc(-c2ccc3nc(C4COc5ccc(C(=O)NCCO)cc5C4)[nH]c3c2)n1 (centres undefined) | 2.8 | 370 | 132 | – | – | – | – | – | – | – | – | – | – | – | –
16 | Cc1cc(-c2ccncc2)cc2[nH]c(C3COc4ccccc4O3)nc12 (centres undefined) | 240 | 1380 | 6 | Active | Active | Active | Active | – | – | – | – | – | – | – | –

Row | Structure (SMILES) | IC50 [1] [nM] | IC50 [2] [nM] | Ratio IC50 [3] | Activity (Cytochrome P450 2C9) | Activity (Cytochrome P450 2D6) | Activity (Cytochrome P450 3A4) | Activity (Cytochrome P450 1A2) | half-life [4] [h] | IC50 [5] [nM] | Vd [6] [L/kg] | bioavailability [7] [%] | Cmax [8] [nM] | clearance [9] [mL/min/kg] | AUC (Rattus norvegicus) [µM·h] | half-life [10] [h]
17 | Nc1nccc(-c2ccc3nc(C4COc5ccc(C(=O)NCc6cccnc6)cc5C4)[nH]c3c2)n1 (centres undefined) | 0.78 | 82 | 105 | – | – | – | – | – | – | – | – | – | – | – | –
18 | COc1ccc2c(c1)CC(c1nc3ccc(-c4ccnc(N)n4)cc3[nH]1)CO2 (centres undefined) | 1.7 | 485 | 285 | – | – | – | – | – | 85 | – | – | – | – | 1.9 | –
19 | Nc1nccc(-c2ccc3nc(C4COc5ccc(C(=O)NCCc6ccccc6)cc5C4)[nH]c3c2)n1 (centres undefined) | 1.7 | 700 | 412 | – | – | – | – | – | – | – | – | – | – | – | –
20 | c1ccc(CCn2c(C3COc4ccccc4O3)nc3ccc(-c4ccncc4)cc32)cc1 (centres undefined) | 680 | 8810 | 13 | Active | Active | Active | Active | – | – | – | – | – | – | – | –
21 | Cn1c(C2COc3ccccc3O2)nc2cc(-c3ccncc3)ccc21 (centres undefined) | 1780 | 3130 | 2 | Active | Active | Active | Active | – | – | – | – | – | – | – | –
22 | COc1cccc2c1OCC(c1nc3ccc(-c4ccnc(N)n4)cc3[nH]1)C2 (centres undefined) | 256 | 232 | 0.9 | – | – | – | – | – | – | – | – | – | – | – | –
23 | CN(C)C(=O)c1ccc2c(c1)CC(c1nc3ccc(-c4ccnc(N)n4)cc3[nH]1)CO2 (centres undefined) | 129 | 1730 | 13 | – | – | – | – | – | – | – | – | – | – | – | –
24 | Nc1nccc(-c2ccc3nc(C4COc5ccc(C(=O)NCCc6ccccn6)cc5C4)[nH]c3c2)n1 (centres undefined) | 0.43 | 305 | 709 | – | – | – | – | – | – | – | – | – | – | – | –
25 | c1ccc(Cn2c(C3COc4ccccc4O3)nc3ccc(-c4ccncc4)cc32)cc1 (centres undefined) | 190 | 1000 | 5 | Active | Active | Active | Active | – | – | – | – | – | – | – | –
26 | COc1ccc2c(c1)OCC(c1nc3ccc(-c4ccnc(N)n4)cc3[nH]1)C2 (centres undefined) | 95 | 435 | 4.6 | – | – | – | – | – | – | – | – | – | – | – | –
27 | COc1cccc2c1CC(c1nc3ccc(-c4ccnc(N)n4)cc3[nH]1)CO2 (centres undefined) | 25 | 310 | 12 | – | – | – | – | – | – | – | – | – | – | – | –
28 | CN(C)CCCNC(=O)c1ccc2c(c1)CC(c1nc3ccc(-c4ccnc(N)n4)cc3[nH]1)CO2 (centres undefined) | 1.2 | 272 | 227 | – | – | – | – | 3 | 2700 | 4.6 | < 1 | 3 | 27 | 0.01 | 1.67
29 | Nc1nccc(-c2ccc3nc(C4COc5ccccc5C4)[nH]c3c2)n1 (centres undefined) | 8 | 195 | 24 | – | – | – | – | – | – | – | – | – | – | – | –
30 | COc1ccc2c(c1)CC(c1nc3c(OCCN(C)C)cc(-c4ccncc4)cc3[nH]1)CO2 (centres undefined) | 440 | > 20000 | > 45 | Active | Active | Active | Active | – | – | – | – | – | – | – | –
31 | c1ccc2c(c1)OCC(c1nc3ccc(-c4ccncc4)cc3n1C1CCOCC1)O2 (centres undefined) | 27 | 509 | 19 | Active | Active | Active | Active | – | – | – | – | – | – | – | –

Reference: ChEMBL document CHEMBL1155401, “The development of benzimidazoles as selective rho kinase inhibitors” (Bioorg Med Chem Lett, 2010)
